Reference: patent publication US20240417404A1, “CRYSTALLINE FORMS OF N-[4-[4-(4-MORPHOLINYL)-7H-PYRROLO[2,3-d]PYRIMIDIN-6-YL]PHENYL]-4-[[3(R)-[(1-OXO-2-PROPEN-1-YL)AMINO]-1-[sequence]]METHYL]-2-PYRIDINECARBOXAMIDE AS IRREVERSIBLE INHIBITORS OF MENIN-MLL INTERACTION” (BIOMEA FUSION, INC., priority 2023, published 2024)
pIC50: −log10 of the molar value. Like-named read-outs stand apart in the source and are kept apart here.

Assays:
[1] = Clinical study (SAD, food effect, MAD cohorts) in healthy and type 2 diabetes mellitus subjects; format: in vivo, human; settings: human, in vivo, oral; for AUC: read-out: Exposure: AUC; for Cmax: read-out: Exposure: Cmax
Description: (§1) In Experimental Phase 1 (SAD cohorts), 40 healthy adult subjects were randomized into 4 dose escalating cohorts of 10. In each cohort, subjects were randomized at 7:3 (active and placebo) in sequential order. Each cohort was composed of 2 sentinel subjects randomized at 1:1 (active and placebo), followed by 8 additional subjects randomized at 3:1 (active and placebo). Doses were 100 mg, 200 mg, 400 mg, and 600 mg.
(§2) In Experimental Phase 1 (3-period crossover, food effect study), each cohort of 12 healthy adult subjects was randomized at 1:1:1:1:1:1 in a 3-period crossover study with 6 treatment sequences.
(§3) In Experimental Phase 2 (MAD cohorts), 1 cohort of 16 healthy adult subjects was randomized at 3:1 (active and placebo), and 7 cohorts of type 2 diabetes mellitus adult subjects were randomized at 5:1 (active and placebo) to obtain safety and efficacy data to identify the potential optimal biological dose (OBD) and a recommended Phase 2 dose (RP2D). Doses were 100 mg, 200 mg, 400 mg, and 600 mg.

[2] = test system: healthy adult subjects and type 2 diabetes mellitus adult subjects; experiment: as above; format: in vivo, human
Description: as §1, §2, §3

JJN3 = experiment: MM cell line proliferation (Cell Titer Glo, four days): JJN3; format: cell-based; settings: JJN3, t(14; 16), NRAS Q61K
Description: (§4) DLBCL cell line TOLEDO was cultured in the presence of Compound A or clinical reversible menin inhibitors for six and fourteen hours. Menin protein expression was reduced up to 60% at 1 μM by Compound A after fourteen hours compared to clinical reversible inhibitors at <20% at similar concentrations. Menin protein expression was measured by the Wes system and analyzed using the Compass software (automated western blotting, Protein Simple). Signal was normalized to GAPDH and referenced to DMSO control (FIG. 36E). DLBCL and MM cell lines were cultured with Compound A, bortezomib (PS-341), or DMSO for four days and cell proliferation was measured by Cell Titer Glo. Ex vivo studies of DLBCL and MM models were conducted by measurement of cell proliferation (Cell Titer Glo) after six days of treatment with Compound A, PS-341, or DMSO control.

[3] = test system: MM patient-derived bone marrow mononuclear cells (BMMCs); experiment: Ex vivo MM patient-derived bone marrow mononuclear cells (Cell Titer Glo, six days); format: cell-based; settings: Homo sapiens, BMMC; panel of newly diagnosed and R/R ex vivo MM samples, single agent
Description: Compound A was tested against a THL cell line (VAL), and a DEL cell line (U2932). An expanded panel of DHL cell lines were tested for sensitivity to Compound A. Ex vivo patient samples of THL and MYC-amplified DLBCL were tested with Compound A. Sensitivity of THL and MYC-driven DLBCL in both in vitro and ex vivo models were compared with clinical reversible menin inhibitors. Compound A was tested against a panel of MM cell lines and ex vivo MM patient samples of p53del, 13qdel, and relapsed/refractory cases.
as §4

## C=CC(=O)N[C@@H]1CCCN(Cc2ccnc(C(=O)Nc3ccc(-c4cc5c(N6CCOCC6)ncnc5[nH]4)cc3)c2)C1 [Compound A, N-[4-[4-(4-morpholinyl)-7H-pyrrolo[2,3-d]pyrimidin-6-yl]phenyl]-4-[[3(R)-[(1-oxo-2-propen-1-yl)amino]-1-piperidinyl]methyl]-2-pyridinecarboxamide]
[1]; Cohort 2 (taken with food)
  AUC: 84.3 ng·h/mL
  Cmax: 34.8 ng/mL
[1]; Cohort 3 (taken without food)
  AUC: 224 ng·h/mL
  Cmax: 94.2 ng/mL
[2]; 4 weeks of treatment
  dose discontinuations: no dose discontinuations
  episodes of symptomatic hypoglycemia: No episodes of symptomatic hypoglycemia occurred in any patients
  safety profile: well-tolerated safety profile
  severe or serious TEAEs: No severe or serious TEAEs were observed
[2]; Cohort 2
  Mean Change in HbA1c % at Week 4: (−0.25) %
  Median Change in HbA1c % at Week 4: −0.3%
[2]; Cohort 3
  Mean Change in HbA1c % at Week 4: (−0.81) %
  Median Change in HbA1c % at Week 4: −1.0%
[2]; any reduction
  patients who achieved a reduction in HbA1c: 89%
[2]; cohort when taken with food
  median change of Hb1Ac: -0.3%
[2]; cohort when taken without food
  median change of Hb1Ac: -1%
[2]; human, in vivo
  patients who achieved ≥0.5% reduction in HbA1c: 78%
  patients who achieved ≥1% reduction in HbA1c: 56%
JJN3
  Average % Max Inhibition by Compound A: 99.2%
[3]
  pIC50: 6.52 to 7.00
